Measured values: patent US7238813B2, “Chemical compounds” (Smithkline Beecham Corporation, priority 2000, dated 2007)
Structures can show the parent of a compound that is named as a salt.

What was measured:
[1] = target: Recombinant GST-Tie2 (Homo sapiens, UniProt Q02763); assay: Tie2 fluorescence polarization kinase activity assay (TIE2-FP); type: biochemical; conditions: starred examples, 200 μM ATP, read-out: TIE2-E (Tie-2 activities run utilizing Tie2-FP assay)
Procedure: Tie2 Fluorescence Polarization Kinase Activity Assay: (TIE2-FP)
Activation of Recombinant Tie2 Activation:
Recombinant GST-Tie2 was activated by incubating the enzyme in 20 mM Tris-HCl, pH 7.5, 12 mM MgCl2, 100 mM NaCl, 20 μM sodium vanidate, 1 mM DTT and 300 μM ATP at room temperature for 2 hours. The activation mixture was then passed through a NAP-25 desalting column (Pharmacia Biotech cat. no. 17-0852-02) to remove the free ATP. The activated enzyme was stored as aliquots at −80° C. in 20 mM Tris-HCl, pH 7.5 and 100 mM NaCl.
The final assay conditions were 50 mM HEPES, pH 7.5, 5% DMSO (when screening compounds), 200 μM ATP, 5 mM MgCl2, 1 mM DTT, 50 μM sodium vanidate, 1 nM activated enzyme, and 200 μM peptide. IC50's of compounds were measured under subsaturating ATP (200 μM) and varing concentrations of activated Tie2 and peptide substrate ([…]-OH; MW 1873 Da, TFA salt). Panvera Antiphosphotyrosine antibody (Cat#P2840) and PTK Green Tracer (Cat#P2842) were used to detect the phosphorylated peptide. Polarization was measured on a TECAN Polarion in 138-second cycles for 30 minutes at room temperature. IC50's were then determined from the % polarization using normal calculation methods.

[2] = target: T1, GST-VEGFR2 (Homo sapiens, UniProt P35968); assay: VEGF-R2 enzyme assay (VEGF-E), LANCE method; type: biochemical; conditions: 75 μM ATP
T1 construct: GST-VEGFR2, baculovirus expressed recombinant constructs of the intracellular domains of human TIE2 tagged by GST; made in house
T1 sequence (P35968 786-1356 limits assumed): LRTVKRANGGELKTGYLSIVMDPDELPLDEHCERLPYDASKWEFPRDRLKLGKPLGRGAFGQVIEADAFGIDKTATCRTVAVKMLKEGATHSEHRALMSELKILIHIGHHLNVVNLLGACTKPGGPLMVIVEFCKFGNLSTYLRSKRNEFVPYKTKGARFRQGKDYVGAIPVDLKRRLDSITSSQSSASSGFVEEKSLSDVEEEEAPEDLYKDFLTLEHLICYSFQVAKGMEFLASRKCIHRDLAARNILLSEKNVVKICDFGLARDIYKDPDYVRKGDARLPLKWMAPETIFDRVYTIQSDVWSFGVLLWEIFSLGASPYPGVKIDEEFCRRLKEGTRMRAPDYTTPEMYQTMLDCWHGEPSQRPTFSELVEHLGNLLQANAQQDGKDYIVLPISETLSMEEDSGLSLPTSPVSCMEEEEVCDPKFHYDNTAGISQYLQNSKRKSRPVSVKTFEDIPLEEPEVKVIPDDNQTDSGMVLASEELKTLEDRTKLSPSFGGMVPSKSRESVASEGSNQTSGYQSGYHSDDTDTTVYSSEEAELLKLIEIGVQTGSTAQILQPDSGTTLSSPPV

[3] = target: T2, GST-TIE2 (intracellular domains of human TIE2) (Homo sapiens, UniProt Q02763); assay: TIE-2 enzyme assay (TIE2-E), LANCE method; type: biochemical; conditions: 80 uM ATP
T2 construct: made in house
T2 sequence (Q02763 762-1104): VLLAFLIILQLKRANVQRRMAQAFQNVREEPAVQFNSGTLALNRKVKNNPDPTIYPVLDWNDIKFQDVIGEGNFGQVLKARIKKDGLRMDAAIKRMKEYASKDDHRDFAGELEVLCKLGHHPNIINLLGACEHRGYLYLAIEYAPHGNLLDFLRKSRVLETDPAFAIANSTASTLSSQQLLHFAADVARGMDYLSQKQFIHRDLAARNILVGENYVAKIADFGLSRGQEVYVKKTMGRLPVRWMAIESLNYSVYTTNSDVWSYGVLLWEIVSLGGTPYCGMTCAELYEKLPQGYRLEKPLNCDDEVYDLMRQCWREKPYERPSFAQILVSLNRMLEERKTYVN
Method in brief: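 Baculovirus GST-TIE2 (human intracellular domain, aa 762–1104) preactivated 30 min at RT with 2 mM ATP, then reacted 30 min at RT with 1 μM D1-15 peptide, 80 uM ATP, 10 mM MgCl2, pH 7.4, 2.4% DMSO. EDTA-stopped; LANCE Eu-anti-pTyr/streptavidin-APC read-out. IC50 by nonlinear regression, reported as pIC50.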

[4] = target: T3, TIE2 intracellular domain/c-fms extracellular domain (TIE2/c-fms) chimeric protein expressing mouse 3T3 cells (Homo sapiens, UniProt Q02763); assay: TIE-2 autophosphorylation assay (TIE2-C), ELISA; type: cell-based; conditions: TIE2/c-fms 3T3 cells, MCSF activation
T3 construct: a TIE2 intracellular domain/c-fms extracellular domain (TIE2/c-fms) chimeric protein; expressed in transfected cells; host or cells: mouse 3T3 cells
T3 sequence (Q02763 770-1124 limits assumed, change not shown): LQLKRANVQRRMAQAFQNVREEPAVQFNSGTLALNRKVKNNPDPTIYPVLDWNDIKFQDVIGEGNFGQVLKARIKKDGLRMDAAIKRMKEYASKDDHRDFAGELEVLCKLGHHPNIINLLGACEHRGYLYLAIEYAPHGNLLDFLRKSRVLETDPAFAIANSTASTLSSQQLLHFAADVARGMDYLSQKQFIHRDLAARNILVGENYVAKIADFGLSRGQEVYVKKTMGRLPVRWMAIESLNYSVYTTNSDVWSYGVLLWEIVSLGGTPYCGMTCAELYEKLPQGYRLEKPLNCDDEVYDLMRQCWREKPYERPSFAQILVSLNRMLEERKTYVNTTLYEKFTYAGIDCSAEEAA
Method in brief: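 Mouse 3T3 cells expressing TIE2 intracellular/c-fms extracellular chimera treated with compound for 1 hr in serum-free DMEM (0.1% DMSO), then stimulated with MCSF. Lysates captured on anti-c-fms plates overnight at 4 °C; phosphotyrosine detected by biotin-PT66/HRP-streptavidin, OD450. IC50 by nonlinear regression, reported as pIC50.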

[5] = test system: Human umbilical cord endothelial cells (HUVEC); assay: VEGF-driven cellular proliferation assay: BrdU incorporation assay (VEGF-C); type: cell-based; set-up: key to VEGF-C: + = pIC50 of 5.0–6.0; ++ = pIC50 of 6.0–7.0; +++ = pIC50 of > 7.0; − = a negative or inconclusive result; conditions: for IC50: Homo sapiens
Method in brief: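 HUVEC (≤6 passages) were plated at 5000 cells/well and exposed to compound 30 min in serum-free M199 containing 0.6% DMSO. Medium with 20 ng/ml VEGF was then added for 24 h, followed by a 24 h pulse with 10 μM BrdU and ELISA read at 450 nm. IC50 from nonlinear regression of percent inhibition was expressed as pIC50.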

Sequence of Recombinant GST-Tie2 (Q02763 23-1124): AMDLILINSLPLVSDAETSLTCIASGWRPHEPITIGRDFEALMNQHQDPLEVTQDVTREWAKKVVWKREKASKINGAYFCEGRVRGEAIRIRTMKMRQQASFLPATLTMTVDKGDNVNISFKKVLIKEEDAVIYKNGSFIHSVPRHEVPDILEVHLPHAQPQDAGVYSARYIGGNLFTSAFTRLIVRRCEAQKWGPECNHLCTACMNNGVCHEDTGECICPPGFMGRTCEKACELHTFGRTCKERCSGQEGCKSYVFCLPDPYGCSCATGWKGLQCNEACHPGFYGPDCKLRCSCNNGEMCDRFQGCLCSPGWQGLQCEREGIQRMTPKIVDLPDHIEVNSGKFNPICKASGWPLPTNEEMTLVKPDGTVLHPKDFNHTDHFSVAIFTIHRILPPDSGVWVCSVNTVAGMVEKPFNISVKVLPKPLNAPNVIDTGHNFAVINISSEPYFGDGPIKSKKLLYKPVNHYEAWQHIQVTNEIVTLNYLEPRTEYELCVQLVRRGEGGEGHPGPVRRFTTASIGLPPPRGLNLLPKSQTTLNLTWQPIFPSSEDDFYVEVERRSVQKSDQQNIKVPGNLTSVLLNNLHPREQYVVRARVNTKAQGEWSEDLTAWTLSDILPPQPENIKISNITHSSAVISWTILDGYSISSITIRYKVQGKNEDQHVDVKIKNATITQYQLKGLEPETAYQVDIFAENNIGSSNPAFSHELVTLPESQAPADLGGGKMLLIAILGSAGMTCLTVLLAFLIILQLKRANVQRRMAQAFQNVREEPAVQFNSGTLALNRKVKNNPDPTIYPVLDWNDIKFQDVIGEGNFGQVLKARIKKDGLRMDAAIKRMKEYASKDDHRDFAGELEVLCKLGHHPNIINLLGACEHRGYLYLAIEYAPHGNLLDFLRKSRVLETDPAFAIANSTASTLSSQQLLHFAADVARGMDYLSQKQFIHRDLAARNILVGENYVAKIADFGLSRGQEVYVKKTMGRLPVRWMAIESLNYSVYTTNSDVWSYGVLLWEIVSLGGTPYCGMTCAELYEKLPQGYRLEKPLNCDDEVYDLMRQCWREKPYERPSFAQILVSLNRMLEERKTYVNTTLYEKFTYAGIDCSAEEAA

SMILES | IC50 [1] [nM] | IC50 [2] [nM] | IC50 [3] [nM] | IC50 [4] [nM] | IC50 [5] [nM] | VEGF-C [5]
COCCOCC(=O)Nc1nc2cc(Oc3ccc(NC(=O)Nc4nncs4)cc3)ccc2[nH]1 [Example 152, N-(5-(4-((1,3,4-Thiadiazol-2-yl)aminocarbonylamino)phenoxy)-1H-benzimidazol-2-yl)(2-(methoxy)ethoxy)acetamide] | 1000 to 10000 | 1000 to 10000 |  |  |  | 
COCCOCC(=O)Nc1nc2cc(Oc3ccc(NC(=O)Nc4nnc(C(C)(C)C)s4)cc3)ccc2[nH]1 [Example 159, N-(5-(4-((5-tert-Butyl-1,3,4-thiadiazol-2-yl)aminocarbonylamino)phenoxy)-1H-benzimidazol-2-yl)(2-(methoxy)ethoxy)acetamide] | < 100 | < 100 |  |  |  | 
COCCOCC(=O)Nc1nc2cc(Oc3ccc(NC(=O)Nc4nccs4)cc3)ccc2[nH]1 [Example 151, N-(5-(4-((Thiazol-2-yl)aminocarbonylamino)phenoxy)-1H-benzimidazol-2-yl)(2-(methoxy)ethoxy)acetamide] | 1000 to 10000 | 100 to 1000 |  |  |  | 
COCCOCC(=O)Nc1nc2cc(Oc3ccc(NC(=O)Nc4nc(C(C)(C)C)cs4)cc3)ccc2[nH]1 [Example 158, N-(5-(4-((4-tert-Butylthiazol-2-yl)aminocarbonylamino)phenoxy)-1H-benzimidazol-2-yl)(2-(methoxy)ethoxy)acetamide] | 100 to 1000 | < 100 |  |  |  | 
COCC(=O)Nc1nc2cc(Oc3ccc(NC(=O)Nc4cc(C(F)(F)F)ccc4F)cc3)ccc2[nH]1 [Example 31, N-(5-(4-((2-Fluoro-5-(trifluoromethyl)phenyl)aminocarbonylamino)phenoxy)-1H-benzimidazol-2-yl)-2-methoxyacetamide] |  | < 100 | < 100 | < 100 | < 100 | 
CC(=O)NCC(=O)Nc1nc2cc(Oc3ccc(NC(=O)Nc4cc(C(F)(F)F)ccc4F)cc3)ccc2[nH]1 [Example 29, N-(5-(4-((2-Fluoro-5-(trifluoromethyl)phenyl)aminocarbonylamino)phenoxy)-1H-benzimidazol-2-yl)-2-(N-acetylamino)acetamide] |  | < 100 | < 100 | < 100 | 100 to 1000 | 
COC(=O)Nc1nc2ccc(Oc3ccc(NC(=O)Nc4cc(C(F)(F)F)ccc4Cl)cc3)nc2[nH]1 [Example 72, Methyl N-(5-(4-((2-chloro-5-(trifluoromethyl)phenyl)aminocarbonylamino)phenoxy)-3,4-diaza-1H-indole-2-yl)carbamate dihydrochloride] |  | < 100 | < 100 | < 100 | 1000 to 10000 | 
COC(=O)Nc1nc2cc(Oc3ccc(NC(=O)Nc4cccc(SC)c4)cc3)ccc2[nH]1 [Example 48] |  | < 100 | < 100 | < 100 |  | −
CCc1nnc(NC(=O)Nc2ccc(Oc3ccc4[nH]c(NC(=O)COCCOC)nc4c3)cc2)s1 [Example 156, N-(5-(4-((5-Ethyl-1,3,4-thiadiazol-2-yl)aminocarbonylamino)phenoxy)-1H-benzimidazol-2-yl)(2-(methoxy)ethoxy)acetamide] | 100 to 1000 | < 100 |  |  |  | 
COC(=O)Nc1nc2ccc(Oc3ccc(NC(=O)Nc4cc(C(F)(F)F)ccc4F)cc3)cc2n1CCN(C)C [Example 70, Methyl N-(6-(4-((2-fluoro-5-(trifluoromethyl)phenyl)aminocarbonylamino)phenoxy)-1-(2-(dimethylamino)ethyl)-1H-benzimidazol-2-yl)carbamate] |  | < 100 | < 100 | 100 to 1000 | 1000 to 10000 | 
COCCOCC(=O)Nc1nc2cc(Oc3ccc(NC(=O)Nc4nc(C)cs4)cc3)ccc2[nH]1 [Example 153, N-(5-(4-((4-Methylthiazol-2-yl)aminocarbonylamino)phenoxy)-1H-benzimidazol-2-yl)(2-(methoxy)ethoxy)acetamide] | 1000 to 10000 | 100 to 1000 |  |  |  | 
COC(=O)Nc1nc2ccc(Sc3ccc(NC(=O)Nc4cccc(C(F)(F)F)c4)cc3)cc2[nH]1 [Example 2, Methyl N-(5-(4-((3-(trifluoromethyl)phenyl)aminocarbonylamino)phenylthio)-1H-benzimidazol-2-yl)carbamate] |  | < 100 | < 100 | < 100 | 1000 to 10000 | 
COCCOCC(=O)Nc1nc2cc(Oc3ccc(NC(=O)Nc4nnc(C)s4)cc3)ccc2[nH]1 [Example 155, N-(5-(4-((5-Methyl-1,3,4-thiadiazol-2-yl)aminocarbonylamino)phenoxy)-1H-benzimidazol-2-yl)(2-(methoxy)ethoxy)acetamide] | 1000 to 10000 | 100 to 1000 |  |  |  | 
COC(=O)Nc1nc2cc(Oc3ccc(NC(=O)Nc4cc(C(F)(F)F)ccc4Cl)cn3)ccc2[nH]1 [Example 111, Methyl-N-(5-(5-((2-chloro-5-(trifluoromethyl)phenyl)aminocarbonylamino)-2-pyridyloxy)-1H-benzimidazol-2-yl)carbamate] |  | < 100 | < 100 | < 100 |  | −
Nc1nc2ccc(Oc3ccc(NC(=O)Nc4cc(C(F)(F)F)ccc4F)cc3)cc2[nH]1 [Example 22, 2-Amino-5-(4-((2-fluoro-5-(trifluoromethyl)phenyl)aminocarbonylamino)phenoxy)-1H-benzimidazole.] |  | < 100 | < 100 | 1000 to 10000 | 1000 to 10000 | 
COC(=O)Nc1nc2cc(Oc3ccc(NC(=O)Nc4ccc(Cl)c(C(F)(F)F)c4)cc3)ccc2[nH]1 [Example 44, Methyl N-(5-(4-((4-chloro-3-(trifluoromethyl)phenyl)aminocarbonylamino)phenoxy)-1H-benzimidazol-2-yl)carbamate] |  | < 100 | < 100 | 100 to 1000 |  | −
CC(=O)Nc1nc2cc(Oc3ccc(NC(=O)Nc4nc(C(C)(C)C)cs4)cc3)ccc2[nH]1 [Example 146, N-(5-(4-((4-tert-Butylthiazol-2-yl)aminocarbonylamino)phenoxy)-1H-benzimidazol-2-yl)acetamide] | 100 to 1000 | < 100 |  |  |  | 
